Test results: US11242555B2, “Molecular sensors and uses thereof” (New York University, priority 2018, dated 2022)
“Also recorded” adds a separate entry of the source. Starred links: 1 amine or outer side, 2 acyl side, 3 side chain; linkers in the order of their positions; H or OH if unused. Positions of bridges follow the written chain, without caps; N, C: chain ends. Non-standard residues stand in square brackets, D forms with d. Residues, ends and D or L forms follow the SMILES beside them. Chains are numbered I, II in the order given. Actinocin(9to1) = Cc1c2oc3c(C)ccc(C(=O)[*:1])c3nc-2c(C(=O)[*:2])c(N)c1=O; NMeV = CN[C@H](C(=O)O)C(C)C; Sar = CNCC(=O)O

Legend:
DNA within living cells = assay: Linear probe in living cells transfected with the oligo probe (confocal FRET ratio); assay type: cell-based; conditions: for FRET ratio (Cy5:Cy3) in cells in presence of intercalating drug vs no drug: cells transfected with linear probe, drug in culture medium
Description: Cells transfected with the oligo probe were imaged by exciting the donor (Cy3) and imaging the fluorescence of Cy3 (A) and Cy5 (acceptor) (B) in the appropriate spectral ranges using a confocal microscope. (C) The false-colored images can be merged, therefore producing a false color image where orange indicates a large FRET ratio. […] (G) The drop in the FRET ratio is measured by calculating the ratio of the Cy5 signal to that of Cy3 within the nuclei of cells in presence of the three intercalating compounds.
The molecular sensors were used in cell culture according to the following: 1) the desired cells were prepared in glass-bottom culture dishes or wells to a confluence lower than 70%. 2) Two hours before imaging, a desired transfection protocol (e.g., liposome transfection), and the like) is used with either sensor depending on the desired mode of DNA binding to be investigated. 3) After the transfection period, the culture was washed from excess sensors. 4) The culture disk was transferred to the confocal microscope for imaging. […] 6) If using filter cubes use the appropriate cubes to image donor fluorescence in one channel and acceptor fluorescence in the other. If using spectral imaging set the imaging wavelength windows for the two fluorophores. 7) Cells were identified that have been successfully transfected as indicated by fluorescence throughout the cell. 8) Images were acquired in both channels. 9) Software to calculate the ratio of acceptor/donor fluorescence (the FRET ratio) for the desired regions within the imaged cells was used. 10) The desired drug to be tested was added. 11) The cells were imaged again and the FRET ratio was calculated as a function of the desired variable: e.g. time, drug concentration, region within the cell, etc. A change in the FRET ratio indicates DNA drug binding.
Using laser scanning confocal microscopy the cells are imaged by exciting the donor (Cy3) and imaging the fluorescence of Cy3 and Cy5 (acceptor) in the appropriate spectral ranges (images A, B, D, E). The false-colored images can be merged therefore producing a false color image where green indicates a small FRET ratio and red a large FRET ratio and intermediate values being yellow/orange (images C and F). […] The FRET ratio can be measured from the ratio of Cy5:Cy3 intensities.
Cells were transfected with the sensor and imaged in culture medium as described in FIG. 17. […] The average FRET ratio measured as Cy5:Cy3 intensities in the images is plotted as a function of time in the lower right panel.

[1] = system: double-stranded oligo probe (DNA); assay: Linear oligo probe titration with intercalating drug in solution (FRET ratio, Hill plot binding constant); conditions: for binding constant: Hill plot fit of fraction of intercalated bases vs drug concentration, all binding sites assumed occupied at saturation
[2] = system: double-stranded oligo probe (DNA); assay: High-throughput screen of a compound library with the linear oligo probe (FRET ratio, 384 well plate); assay type: binding
Description: A library of compounds was mixed with the oligo probe in 384 well plate format. (A) The fluorescence spectra of the probe were recorded on a plate reader as in FIG. 21 and the FRET ratio (Cy5/Cy3 intensity) was calculated. […] (B) A library consisting of 1600 compounds from FDA and internationally approved drugs was screened to detect potential intercalators that can be drug repositioning targets.
The molecular sensors were used in vitro according to the following: 1) The sensors were diluted in a NaCl solution (e.g., in a 50-100 mM NaCl solution) and 0.2% BSA solution to a concentration of 1 μM. This can be adjusted depending on the sensitivity of the fluorescence measurement device. 2) The fluorescence spectrum was measured using a fluorescence spectrophotometer, a plate reader, or any other ad-hoc means. […] 3) The molecular species was added to be characterized for DNA binding properties or to be tested for intercalating or groove binding ability. The appropriate sensor is used (e.g., a linear or flexible molecular sensor). The fluorescence spectrum was measured again using the same methods and settings. 4) The FRET ratio was compared for both the sensor alone and sensor plus tested molecule. The FRET ratio is calculated by dividing the peak intensity of the acceptor fluorescence by that of the donor fluorescence.

[3] = system: nuclei of cells in culture; assay: Flexible sensor FRET ratio within nuclei of cells treated with chromatin-disrupting drugs (macromolecular crowding); assay type: cell-based; conditions: flexible sensor within nuclei of cells in culture medium
Description: The flexible molecular sensors reports on the local macromolecular crowding within living cells in culture (FIG. 5). The sensor was introduced into cells by liposome transfection. After a short incubation period of 45 minutes, the cells plated on an imaging well were washed and imaged using scanning laser confocal microscopy. The cells were then imaged by exciting the donor (Cy3) and imaging the fluorescence of Cy3 and Cy5 (acceptor) in the appropriate spectral ranges (top two images). The false-colored images can be merged therefore producing another false color image where green (FIG. 5—top left) indicates a small FRET ratio and red (FIG. 5—top right) a large FRET ratio an intermediate values being yellow/orange (FIG. 5—bottom left). A quantitative measurement of the FRET ratio is represented as a gray scale image (FIG. 5—bottom right) where each pixel is in the ratio of the intensity in the Cy5 channel divided by that in the Cy3 channel. Local variations indicate local differences in the degree of macromolecular crowding.
Drugs that disrupt chromatin compaction result in a more crowded nucleus (FIG. 11). The FRET ratio was measured within the nuclei of cells in culture medium in the absence and presence of drugs that disrupt chromatin structure. Three drugs that disrupt chromatin in different ways were used: trichostatin A (TSA) and tubacin both of which inhibit histone deacetylases, and etoposide which forms a complex with DNA and topisomerase II resulting in the accumulation of DNA breaks.

| SMILES | FRET ratio (Cy5:Cy3) in cells in presence of intercalating drug vs no drug (DNA within living cells) | binding constant [1] [M⁻¹] | FRET ratio in nuclei of treated cells compared to untreated cells [3] | further results |
| --- | --- | --- | --- | --- |
| Cc1c2oc3c(C)ccc(C(=O)N[C@@H]4C(=O)N[C@H](C(C)C)C(=O)N5CCC[C@H]5C(=O)N(C)CC(=O)N(C)[C@@H](C(C)C)C(=O)O[C@@H]4C)c3nc-2c(C(=O)N[C@@H]2C(=O)N[C@H](C(C)C)C(=O)N3CCC[C@H]3C(=O)N(C)CC(=O)N(C)[C@@H](C(C)C)C(=O)O[C@@H]2C)c(N)c1=O [DACTINOMYCIN] (I: T[dV]P[Sar][NMeV] / II: T[dV]P[Sar][NMeV]; ester I:1-I:C, II:1-II:C; linker I:N-II:N via Actinocin(9to1)) | drop if the FRET efficiency upon intercalation within the cell | 2e+06 |  | FRET ratio (Cy5:Cy3) in cells in presence of intercalating drug vs no drug (DNA within living cells; listed as Actinomycin D): decrease in the FRET ratio; also recorded: clear difference in FRED ratio; time-course of drug entry into the cell (drop in FRET ratio within the nucleus) (DNA within living cells; time-lapse after drug was introduced into the culture medium): from orange (high FRET) to green (low FRET); FRET ratio as a function of intercalator concentration ([1]; linear probe in solution, excited at 500 nm, peak acceptor/peak donor): decreases; FRET ratio [2]: 0.4765 |
| CS[C@H]1SC[C@H]2C(=O)N(C)[C@@H](C(C)C)C(=O)OC[C@@H](NC(=O)c3cnc4ccccc4n3)C(=O)N[C@@H](C)C(=O)N(C)[C@@H]1C(=O)N(C)[C@@H](C(C)C)C(=O)OC[C@@H](NC(=O)c1cnc3ccccc3n1)C(=O)N[C@@H](C)C(=O)N2C [Echinomycin] | clear difference in FRED ratio | 400000 |  |  |
| c1cnc2c(c1)ccc1cccnc12 [Phenanthroline] | clear difference in FRED ratio | 710 |  |  |
| COc1cc([C@@H]2c3cc4c(cc3[C@@H](O[C@@H]3O[C@@H]5CO[C@@H](C)O[C@H]5[C@H](O)[C@H]3O)[C@H]3COC(=O)[C@H]23)OCO4)cc(OC)c1O [etoposide] |  |  | larger FRET ratio |  |
| CC(/C=C/C(=O)NO)=C\[C@@H](C)C(=O)c1ccc(N(C)C)cc1 [trichostatin A] |  |  | larger FRET ratio |  |
| O=C(CCCCCCC(=O)Nc1ccc([C@H]2O[C@@H](CSc3nc(-c4ccccc4)c(-c4ccccc4)o3)C[C@@H](c3ccc(CO)cc3)O2)cc1)NO [tubacin] |  |  | larger FRET ratio |  |
